{
  "source": "patent US20260248784A1",
  "about": "“BTK Degrader and Use Thereof” (JIANGSU VCARE PHARMATECH CO., LTD., priority 2023, published 2026)",
  "key": {"[1]": {"tested_on": "Mino cell xenograft", "test": "Activity test in Mino cell xenograft model", "assay_type": "in vivo, NOD SCID mice", "details": "for Tumor volume: end of experiment, Mean ± SD"}, "[2]": {"tested_on": "mino cells", "test": "Activity test in Mino cells (CCK8 proliferation inhibition)", "assay_type": "cell-based", "details": "Homo sapiens, 72 h, 3 days, read-out: Cell inhibition IC50", "description": "Cell culture: mino cells (culture conditions: RPMI1640 medium+15% FBS, 37° C., 5% CO2). Cell plating: The cells subcultured into the logarithmic growth phase were collected and transferred into a centrifuge tube, and centrifuged at 800 rpm for 5 min. The cells were resuspended in complete medium and counted. The cells were diluted and adjusted to a final concentration of 200000 cells/mL. The cells were then seeded into a 96-well plate with 100 μL per well. Cell administration: Each group of drug solutions was added into the 96-well plate, 100 μL per well, n=3 for each drug concentration. Meanwhile, negative wells (n=6) and blank wells (n=3) were set up. The 96-well plate was incubated in the incubator for further 3 days. CCK8 reagent was added to the 96-well plate, 20 μL per well, and then the plate was placed in the incubator for further 4 h. The absorbance of the solution was measured at a wavelength of 450 nm using an enzyme reader. The proliferation inhibition rate was calculated and the half inhibitory concentration IC50 value was calculated."}, "[3]": {"test": "Brain tissue distribution test in mice", "assay_type": "in vivo", "details": "IV 10 mg/kg; for AUC(0-inf) / AUC(0-t) / MRT / half-life: mouse; for half-life: read-out: T½ (converted)", "description": "Mice were weighed and dosed, and about 50 μL of whole blood was collected from the orbital venous plexus at 5 min, 0.25 h, 0.5 h, 1 h, 2 h, 4 h, 6 h, 8 h, and 24 h after administration, using EDTA-K2 as anticoagulant. At the same time, the animals were euthanized, and the brains were removed, and the brain tissue samples were stored in a −80° C. refrigerator until analysis. The blood samples were centrifuged at 4000 rpm for 10 min at 4° C., and 20 μL of the supernatant plasma sample was taken into an EP tube and immediately stored in a −80° C. refrigerator until analysis. 10 μL of the plasma sample was transferred to a 96-well plate and 250 μL of acetonitrile (containing internal standard) was added to precipitate proteins. The samples were centrifuged at 4000 rpm/min for 20 min in a 4° C. centrifuge. The supernatant was transferred and injected into LC MS/MS to detect the drug concentration. The brain tissue samples were weighed and homogenized with 4 times ice-cold PBS, and 50 μL of the brain tissue homogenate was transferred to a 96-well plate. 500 μL of acetonitrile (containing internal standard) was added to precipitate the protein. The samples were centrifuged at 4000 rpm/min for 20 min in a 4° C. centrifuge. 380 μL of the supernatant was transferred to a new 96-well plate and 380 μL of 0.1% formic acid in water was added and mixed thoroughly. 10 μL of the sample was taken and injected into LC MS/MS to detect the drug concentration. The data were processed by Thermo LC Quan software, and the standard curve was established using the internal standard method, with the theoretical standard curve concentration as the abscissa and the peak area ratio as the ordinate (test compound peak area/internal standard peak area). Sample concentrations were calculated using the standard curve. The pharmacokinetic parameters were calculated using WinNonlin 8.2 software."}},
  "note": "Like-named read-outs stand apart in the source and are kept apart here.",
  "data": [
    {"smiles": "C=CC(=O)N1CCC[C@@H](n2nc(-c3ccc(Oc4ccccc4)cc3)c3c(N)ncnc32)C1", "note": "[Ibrutinib, ibrutinib, reference compound]", "values": [
      {"measurement": "TGITV (Relative tumor volume inhibition rate)", "setting": "[1]; 50 mg/kg", "result": 40.73, "unit": "%"},
      {"measurement": "Tumor volume", "setting": "[1]; 50 mg/kg", "result": "3018.11 ± 1293.65", "unit": "mm^3"}
    ]},
    {"smiles": "COc1ccc(F)cc1C(=O)NCc1ccc(-c2nc(-c3ccc(N4CCN(CC5CCN(c6ccc(N7CCC(=O)NC7=O)c(C)c6)CC5)CC4)cc3)n3ccnc(N)c23)cc1", "note": "[Compound I-40]", "values": [
      {"measurement": "TGITV (Relative tumor volume inhibition rate)", "setting": "[1]; 30 mg/kg", "result": 76.65, "unit": "%"},
      {"measurement": "Tumor volume", "setting": "[1]; 30 mg/kg", "result": "1146.34 ± 435.82", "unit": "mm^3"},
      {"measurement": "IC50", "setting": "[2]", "result": "< 25", "unit": "nM"}
    ]},
    {"smiles": "COc1ccc(F)cc1C(=O)NCc1ccc(-c2nn(-c3ccc(C4CCN(CC5CCN(c6ccc(C7CCC(=O)NC7=O)cc6)CC5)CC4)nc3)c3ncnc(N)c23)cc1", "note": "(stereo not drawn) [Compound I-24]", "values": [
      {"measurement": "IC50", "setting": "[2]", "result": "< 100", "unit": "nM"}
    ]},
    {"smiles": "COc1ccc(F)cc1C(=O)NCc1ccc(-c2nc(-c3ccc(N4CCN(CC5CCN(c6ccc(N7CCC(=O)NC7=O)c(C)c6)CC5)CC4)c(OC)c3)n3ccnc(N)c23)cc1", "note": "[Compound I-51]", "values": [
      {"measurement": "IC50", "setting": "[2]", "result": "< 25", "unit": "nM"}
    ]},
    {"smiles": "COc1ccc(F)cc1C(=O)NCc1ccc(-c2nn(-c3ccc(N4CCN(CC5CCN(c6ccc(N7CCC(=O)NC7=O)cc6)CC5)CC4)nc3)c3ncnc(N)c23)cc1", "note": "[Compound I-3, N-(4-(4-amino-1-(6-(4-((1-(4-(2,4-dioxotetrahydropyrimidin-1(2H)-yl)phenyl)piperidin-4-yl)methyl)piperazin-1-yl)pyridin-3-yl)-1H-pyrazolo[3,4-d]pyrimidin-3-yl)benzyl)-5-fluoro-2-methoxybenzamide]", "values": [
      {"measurement": "IC50", "setting": "[2]", "result": 16, "unit": "nM"}
    ]},
    {"smiles": "COc1ccc(F)cc1C(=O)NCc1ccc(-c2nn(-c3ccc(C4CCN(CC5CCN(c6ccc(N7CCC(=O)NC7=O)cc6)CC5)CC4)cc3)c3ncnc(N)c23)cc1", "note": "[Compound I-6, N-(4-(4-amino-1-(4-(1-((1-(4-(2,4-dioxotetrahydropyrimidin-1(2H)-yl)phenyl)piperidin-4-yl)methyl)piperidinyl)phenyl)-1H-pyrazolo[3,4-d]pyrimidin-3-yl)benzyl)-5-fluoro-2-methoxybenzamide]", "values": [
      {"measurement": "IC50", "setting": "[2]", "result": 16, "unit": "nM"}
    ]},
    {"smiles": "COc1ccc(F)cc1C(=O)NCc1ccc(-c2nn(-c3ccc(N4CCN(CC5CCN(c6ccc7c(c6)CN(C6CCC(=O)NC6=O)C7=O)CC5)CC4)nc3)c3ncnc(N)c23)cc1C", "note": "(stereo not drawn) [II-2, N-(4-(4-amino-1-(6-(4-((1-(2-(2,6-dioxopiperidin-3-yl)-1-oxoisoindolin-5-yl)piperidin-4-yl)methyl)piperazin-1-yl)pyridin-3-yl)-1H-pyrazolo[3,4-d]pyrimidin-3-yl)-2-methylbenzyl)-5-fluoro-2-methoxybenzamide]", "values": [
      {"measurement": "IC50", "setting": "[2]", "result": 17, "unit": "nM"}
    ]},
    {"smiles": "COc1ccc(F)cc1C(=O)NCc1ccc(-c2nn(-c3ccc(C4CCN(CC5CCN(c6ccc(N7CCC(=O)NC7=O)c(C)c6)CC5)CC4)cc3)c3ncnc(N)c23)cc1F", "note": "[Compound I-44, N-(4-(4-amino-1-(4-(1-((1-(4-(2,4-dioxotetrahydropyrimidin-1(2H)-yl)-3-methylphenyl)piperidin-4-yl)methyl)piperidinyl)phenyl)-1H-pyrazolo[3,4-d]pyrimidin-3-yl)-2-fluorobenzyl)-5-fluoro-2-methoxybenzamide]", "values": [
      {"measurement": "IC50", "setting": "[2]", "result": "< 25", "unit": "nM"}
    ]},
    {"smiles": "COc1ccc(F)cc1C(=O)NCc1ccc(-n2c(=O)n(-c3ccc(N4CCN(CC5CCN(c6ccc(N7CCC(=O)NC7=O)c(C)c6)CC5)CC4)nc3)c3ccnc(N)c32)cc1", "note": "[Compound I-52, N-(4-(4-amino-1-(6-(4-((1-(4-(2,4-dioxotetrahydropyrimidin-1(2H)-yl)-3-methylphenyl)piperidin-4-yl)methyl)piperazin-1-yl)pyridin-3-yl)-2-oxo-1,2-dihydro-3H-imidazo[4,5-c]pyridin-3-yl)benzyl)-5-fluoro-2-methoxybenzamide]", "values": [
      {"measurement": "IC50", "setting": "[2]", "result": "< 50", "unit": "nM"}
    ]},
    {"smiles": "COc1ccc(F)cc1C(=O)NCc1ccc(-c2nc(-c3ccc(N4CCN(CC5CCN(c6ccc(C7CCC(=O)NC7=O)cc6)CC5)CC4)cc3)n3ccnc(N)c23)cc1", "note": "(stereo not drawn) [Compound I-18]", "values": [
      {"measurement": "B/P Ratio AUC (brain)/AUC (plasma)", "setting": "[3]", "result": "6.86% ± 0.01"},
      {"measurement": "AUC(0-inf)", "setting": "[3]; brain", "result": "2710 ± 149", "unit": "ng·h/mL"},
      {"measurement": "AUC(0-t)", "setting": "[3]; brain", "result": "2270 ± 126", "unit": "ng·h/mL"},
      {"measurement": "MRT", "setting": "[3]; brain", "result": "7.17 ± 0.59", "unit": "h"},
      {"measurement": "half-life", "setting": "[3]; brain", "result": "9.39 ± 3.04", "unit": "h"},
      {"measurement": "AUC(0-inf)", "setting": "[3]; plasma", "result": "39800 ± 4460", "unit": "ng·h/mL"},
      {"measurement": "AUC(0-t)", "setting": "[3]; plasma", "result": "39100 ± 5080", "unit": "ng·h/mL"},
      {"measurement": "MRT", "setting": "[3]; plasma", "result": "4.88 ± 0.14", "unit": "h"},
      {"measurement": "half-life", "setting": "[3]; plasma", "result": "4.44 ± 1.38", "unit": "h"},
      {"measurement": "IC50", "setting": "[2]", "result": "< 25", "unit": "nM"}
    ]},
    {"smiles": "COc1ccc(F)cc1C(=O)NCc1ccc(-c2nn(-c3ccc(N4CCN(CC5CCN(c6ccc(N7CCC(=O)NC7=O)c(C)c6)CC5)CC4)cc3)c3ccnc(N)c23)cc1", "note": "[Compound I-46]", "values": [
      {"measurement": "IC50", "setting": "[2]", "result": "< 100", "unit": "nM"}
    ]},
    {"smiles": "COc1ccc(F)cc1C(=O)NCc1ccc(-c2nn(-c3ccc(N4CCN(CC5CCN(c6ccc(N7CCC(=O)NC7=O)c(C)c6)CC5)CC4)cc3)c(N)c2C(N)=O)cc1", "note": "[Compound I-8]", "values": [
      {"measurement": "IC50", "setting": "[2]", "result": "< 25", "unit": "nM"}
    ]},
    {"smiles": "COc1ccc(F)cc1C(=O)NCc1ccc(-c2nn(-c3ccc(N4CCN(CC5CCN(c6ccc7c(c6)C(=O)N(C6CCC(=O)NC6=O)C7=O)CC5)CC4)nc3)c3ncnc(N)c23)cc1C", "note": "(stereo not drawn) [II-6, N-(4-(4-amino-1-(6-(4-((1-(2-(2,6-dioxopiperidin-3-yl)-1,3-dioxoisoindol-5-yl)piperidin-4-yl)methyl)piperazin-1-yl)pyridin-3-yl)-1H-pyrazolo[3,4-d]pyrimidin-3-yl)-2-methylbenzyl)-5-fluoro-2-methoxybenzamide]", "values": [
      {"measurement": "IC50", "setting": "[2]", "result": 21, "unit": "nM"}
    ]},
    {"smiles": "COc1ccc(F)cc1C(=O)NCc1ccc(-c2nn(-c3ccc(C4CCN(CC5CCN(c6ccc(N7CCC(=O)NC7=O)c(C)c6)CC5)CC4)nc3)c(N)c2C(N)=O)cc1", "note": "[Compound I-12]", "values": [
      {"measurement": "IC50", "setting": "[2]", "result": "< 25", "unit": "nM"}
    ]},
    {"smiles": "Cc1cc(N2CCC(CN3CCN(c4ccc(-n5nc(-c6ccc(Oc7ccccc7)cc6)c6c(N)ncnc65)cc4)CC3)CC2)ccc1N1CCC(=O)NC1=O", "note": "[Compound I-55]", "values": [
      {"measurement": "IC50", "setting": "[2]", "result": "< 100", "unit": "nM"}
    ]},
    {"smiles": "COc1ccc(F)cc1C(=O)NCc1ccc(-c2nn(-c3ccc(C4CCN(CC5CCN(c6ccc(N7CCC(=O)NC7=O)c(C)c6)CC5)CC4)cc3)c3ncnc(N)c23)cc1", "note": "[Compound I-5, N-(4-(4-amino-1-(4-(1-((1-(4-(2,4-dioxotetrahydropyrimidin-1(2H)-yl)-3-methylphenyl)piperidin-4-yl)methyl)piperidinyl)phenyl)-1H-pyrazolo[3,4-d]pyrimidin-3-yl)benzyl)-5-fluoro-2-methoxybenzamide]", "values": [
      {"measurement": "IC50", "setting": "[2]", "result": 84, "unit": "nM"}
    ]},
    {"smiles": "COc1ccc(F)cc1C(=O)NCc1ccc(-c2nn(-c3ccc(N4CCN(CC5CCN(c6ccc7c(c6)CN(C6CCC(=O)NC6=O)C7=O)CC5)CC4)nc3)c3ncnc(N)c23)cc1", "note": "(stereo not drawn) [II-1]", "values": [
      {"measurement": "IC50", "setting": "[2]", "result": 4, "unit": "nM"}
    ]},
    {"smiles": "COc1ccc(F)cc1C(=O)NCc1ccc(-n2c(=O)n(-c3ccc(N4CCN(CC5CCN(c6ccc7c(c6)CN(C6CCC(=O)NC6=O)C7=O)CC5)CC4)cc3)c3ccnc(N)c32)cc1", "note": "(stereo not drawn) [II-24, N-(4-(4-amino-1-(4-(-4-((1-(2-(2,6-dioxopiperidin-3-yl)-1-oxoisoindol-5-yl)piperidin-4-yl)methyl)piperazin-1-yl)phenyl)-2-oxo-1,2-dihydro-3H-imidazo[4,5-c]pyridin-3-yl)benzyl)-5-fluoro-2-methoxybenzamide]", "values": [
      {"measurement": "IC50", "setting": "[2]", "result": "< 50", "unit": "nM"}
    ]}
  ]
}
